From ChEMBL document CHEMBL1144106, “Highly oxygenated pseudopterane and cembranolide diterpenes from the Caribbean sea feather Pseudopterogorgia bipinnata” (1999)
The source made the active and inactive calls. The calls are words filed in the database; no cut-off is given here.

Legend:
CCRF-CEM = assay: Cytotoxicity against human CCRF-CEM cells; type: functional
[1] = system: Mycobacterium tuberculosis; assay: Antituberculosis activity against Mycobacterium tuberculosis H37Rv at 12.5 ug/mL; type: functional, organism-based

Row | Compound | GI50 (CCRF-CEM) [nM] | Activity [1]
1 | C=C(C(=O)OC)[C@@H]1C[C@@H](OC(C)=O)C2=C[C@H](C[C@@]3(C)O[C@@H]3C3=CC(C)=C(O3)[C@H]1OC(C)=O)OC2=O [BIPINNATIN I] | 42.7 | 
2 | C=C(C)[C@@H]1CCC2=C[C@H](C/C(C)=C\C3=CC(C)=C(O3)[C@H]1O)OC2=O |  | inactive
3 | C=C(C)[C@H]1C(=O)[C@H]2O[C@@]2(C)C(=O)[C@@H](O)[C@H](C(=C)C)CCC2=C[C@H]1OC2=O |  | inactive
4 | C=C(C)[C@@H]1C[C@H]2O[C@](O)(C/C(C)=C\C(=O)/C=C(/C)C[C@@H]3OC(=O)[C@]24O[C@@H]34)[C@H]1O |  | inactive
5 | C=C(C)[C@H]1C2=CC(C)=C(O2)[C@@H](O)[C@H](C(=C)C)CCC2=C[C@H]1OC2=O |  | inactive
